Measured values reported in patent publication US20260262643A1, “HERBICIDAL BENZOXAZINES” (FMC CORPORATION, priority 2022, published 2026).

Legend:
[1] = system: barnyardgrass; experiment: Test C preemergence; format: in vivo, Echinochloa crusgalli
Summary of the method: (§1)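 Greenhouse herbicide screen, 10-day duration. Test chemicals in solvent/surfactant blend were sprayed onto soil at sowing (pre) or onto 2–10 cm seedlings at one to two leaves (post); injury scored visually against controls, 0 no effect to 100 complete control.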

[2] = system: blackgrass; experiment: Test C preemergence; format: in vivo, Alopecurus myosuroides
Summary of the method: as §1

[3] = system: corn; experiment: Test C preemergence; format: in vivo, Zea mays
Summary of the method: as §1

[4] = system: foxtail, giant; experiment: Test C preemergence; format: in vivo, Setaria faberi
Summary of the method: as §1

[5] = system: kochia; experiment: Test C preemergence; format: in vivo, Bassia scoparia
Summary of the method: as §1

[6] = system: oat, wild; experiment: Test C preemergence; format: in vivo, Avena fatua
Summary of the method: as §1

[7] = system: pigweed, palmer; experiment: Test C preemergence; format: in vivo, Amaranthus palmeri
Summary of the method: as §1

[8] = system: ragweed; experiment: Test C preemergence; format: in vivo, Ambrosia artemisiifolia
Summary of the method: as §1

[9] = system: ryegrass, Italian; experiment: Test C preemergence; format: in vivo, Lolium multiflorum
Summary of the method: as §1

[10] = system: soybean; experiment: Test C preemergence; format: in vivo, Glycine max
Summary of the method: as §1

[11] = system: wheat; experiment: Test C preemergence; format: in vivo, Triticum aestivum
Summary of the method: as §1

[12] = system: barnyardgrass; experiment: Test C postemergence; format: in vivo, Echinochloa crusgalli; settings: 10 days, 0 to 100 scale (0 no effect, 100 complete control)
Summary of the method: as §1

[13] = system: blackgrass; experiment: Test C postemergence; format: in vivo, Alopecurus myosuroides; settings: 10 days, 0 to 100 scale (0 no effect, 100 complete control)
Summary of the method: as §1

[14] = system: corn; experiment: Test C postemergence; format: in vivo, Zea mays; settings: 10 days, 0 to 100 scale (0 no effect, 100 complete control)
Summary of the method: as §1

[15] = system: foxtail, giant; experiment: Test C postemergence; format: in vivo, Setaria faberi; settings: 10 days, 0 to 100 scale (0 no effect, 100 complete control)
Summary of the method: as §1

[16] = system: kochia; experiment: Test C postemergence; format: in vivo, Bassia scoparia; settings: 10 days, 0 to 100 scale (0 no effect, 100 complete control)
Summary of the method: as §1

[17] = system: oat, wild; experiment: Test C postemergence; format: in vivo, Avena fatua; settings: 10 days, 0 to 100 scale (0 no effect, 100 complete control)
Summary of the method: as §1

[18] = system: pigweed, palmer; experiment: Test C postemergence; format: in vivo, Amaranthus palmeri; settings: 10 days, 0 to 100 scale (0 no effect, 100 complete control)
Summary of the method: as §1

[19] = system: ragweed; experiment: Test C postemergence; format: in vivo, Ambrosia artemisiifolia; settings: 10 days, 0 to 100 scale (0 no effect, 100 complete control)
Summary of the method: as §1

[20] = system: ryegrass, Italian; experiment: Test C postemergence; format: in vivo, Lolium multiflorum; settings: 10 days, 0 to 100 scale (0 no effect, 100 complete control)
Summary of the method: as §1

[21] = system: soybean; experiment: Test C postemergence; format: in vivo, Glycine max; settings: 10 days, 0 to 100 scale (0 no effect, 100 complete control)
Summary of the method: as §1

[22] = system: wheat; experiment: Test C postemergence; format: in vivo, Triticum aestivum; settings: 10 days, 0 to 100 scale (0 no effect, 100 complete control)
Summary of the method: as §1

[23] = system: galium; experiment: Test C postemergence; format: in vivo, Galium aparine; settings: 10 days, 0 to 100 scale (0 no effect, 100 complete control)
Summary of the method: as §1

[24] = system: horseweed; experiment: Test C postemergence; format: in vivo, Erigeron canadensis; settings: 10 days, 0 to 100 scale (0 no effect, 100 complete control)
Summary of the method: as §1

[25] = system: barnyardgrass; experiment: Test D flooded paddy test; format: in vivo, Echinochloa crus-galli; settings: 250 g ai/ha, applied to paddy water, visual rating after 13 to 14 days, scale 0 to 100 (0 no effect, 100 complete control)
Summary of the method: (§2)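 Post-flood water application at the 2-leaf stage; 3 cm flood depth kept constant; visual control rating 0–100 after 13–14 days greenhouse growth.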

[26] = system: ducksalad; experiment: Test D flooded paddy test; format: in vivo, Heteranthera limosa; settings: 250 g ai/ha, applied to paddy water, visual rating after 13 to 14 days, scale 0 to 100 (0 no effect, 100 complete control)
Summary of the method: as §2

[27] = system: rice; experiment: Test D flooded paddy test; format: in vivo, Oryza sativa; settings: 250 g ai/ha, applied to paddy water, visual rating after 13 to 14 days, scale 0 to 100 (0 no effect, 100 complete control)
Summary of the method: as §2

[28] = system: sedge, umbrella; experiment: Test D flooded paddy test; format: in vivo, Cyperus difformis; settings: 250 g ai/ha, applied to paddy water, visual rating after 13 to 14 days, scale 0 to 100 (0 no effect, 100 complete control)
Summary of the method: as §2

[29] = 500 g ai/ha, preemergence, 0 to 100 scale (0 no effect, 100 complete control)
[30] = Preemergence, 125 g ai/ha, 0 to 100 scale, 0 no effect, 100 complete control

Cc1cccc2c1OC(C(F)(F)F)CN2C(=O)c1ccnc(-n2cnc(C(C)C)n2)c1 (stereo not shown) [Compound 327]
Barnyardgrass plant response rating [1, 29]: 90
Plant response rating, Barnyardgrass [1, 30]: 50
Blackgrass plant response rating [2, 29]: 90
Plant response rating, Blackgrass [2, 30]: 90
Corn plant response rating [3, 29]: 70
Plant response rating, Corn [3, 30]: 20
Foxtail, Giant plant response rating [4, 29]: 100
Plant response rating, Foxtail, Giant [4, 30]: 100
Kochia plant response rating [5, 29]: 90
Plant response rating, Kochia [5, 30]: 20
Oat, Wild plant response rating [6, 29]: 70
Plant response rating, Oat, Wild [6, 30]: 20
Pigweed, Palmer plant response rating [7, 29]: 90
Plant response rating, Pigweed, Palmer [7, 30]: 50
Ragweed plant response rating [8, 29]: 30
Plant response rating, Ragweed [8, 30]: 0
Ryegrass, Italian plant response rating [9, 29]: 100
Plant response rating, Ryegrass, Italian [9, 30]: 90
Soybean plant response rating [10, 29]: 100
Plant response rating, Soybean [10, 30]: 100
Wheat plant response rating [11, 29]: 90
Plant response rating, Wheat [11, 30]: 40
Plant response rating, Barnyardgrass ([12]; 500 g ai/ha, postemergence): 90
Plant response rating, Barnyardgrass ([12]; Postemergence, 125 g ai/ha): 40
Plant response rating, Blackgrass ([13]; 500 g ai/ha, postemergence): 90
Plant response rating, Blackgrass ([13]; Postemergence, 125 g ai/ha): 30
Plant response rating, Corn ([14]; 500 g ai/ha, postemergence): 90
Plant response rating, Corn ([14]; Postemergence, 125 g ai/ha): 70
Plant response rating, Foxtail, Giant ([15]; 500 g ai/ha, postemergence): 90
Plant response rating, Foxtail, Giant ([15]; Postemergence, 125 g ai/ha): 60
Plant response rating, Kochia ([16]; 500 g ai/ha, postemergence): 90
Plant response rating, Kochia ([16]; Postemergence, 125 g ai/ha): 40
Plant response rating, Oat, Wild ([17]; 500 g ai/ha, postemergence): 90
Plant response rating, Oat, Wild ([17]; Postemergence, 125 g ai/ha): 40
Plant response rating, Pigweed, Palmer ([18]; 500 g ai/ha, postemergence): 50
Plant response rating, Pigweed, Palmer ([18]; Postemergence, 125 g ai/ha): 30
Plant response rating, Ragweed ([19]; 500 g ai/ha, postemergence): 40
Plant response rating, Ragweed ([19]; Postemergence, 125 g ai/ha): 30
Plant response rating, Ryegrass, Italian ([20]; 500 g ai/ha, postemergence): 80
Plant response rating, Ryegrass, Italian ([20]; Postemergence, 125 g ai/ha): 40
Plant response rating, Soybean ([21]; 500 g ai/ha, postemergence): 100
Plant response rating, Soybean ([21]; Postemergence, 125 g ai/ha): 100
Plant response rating, Wheat ([22]; 500 g ai/ha, postemergence): 30
Plant response rating, Wheat ([22]; Postemergence, 125 g ai/ha): 20
Plant response rating, Galium ([23]; 500 g ai/ha, postemergence): 100
Plant response rating, Galium ([23]; Postemergence, 125 g ai/ha): 70
Plant response rating, Horseweed ([24]; 500 g ai/ha, postemergence): 60
Plant response rating, Horseweed ([24]; Postemergence, 125 g ai/ha): 0
Plant response rating, Barnyardgrass (Flood) [25]: 15
Plant response rating, Ducksalad (Flood) [26]: 25
Plant response rating, Rice (Flood) [27]: 0
Plant response rating, Sedge, Umbrella (Flood) [28]: 70
